Measured values published in US11452709B2, “Compositions and methods for preventing and treating radiation-induced bystander effects caused by radiation or radiotherapy” (The Regents of the University of Colorado, priority 2017, dated 2022).
Numbering of substitutions follows the chain as printed. Names may count otherwise. Read-outs that look alike come from different tables or passages of the source.

Key:
[1] = target: T1, C. elegans CPR-4 protease (Caenorhabditis elegans, UniProt P43508); assay: CPR-4 protease activity inhibition in vitro (z-Arg-Arg-AMC substrate); assay type: biochemical; details: 1 mM of each compound; read-out: Inhibition rate(%) of the C. elegans CPR-4 protease activity
T1 construct: a cpr-4 cDNA fragment encoding residues 16-336 was PCR amplified from the full-length cpr-4 cDNA clone; GST (N, cleaved yes); made in house; host or cells: Escherichia coli BL21(DE3)
T1 sequence (P43508 81-335): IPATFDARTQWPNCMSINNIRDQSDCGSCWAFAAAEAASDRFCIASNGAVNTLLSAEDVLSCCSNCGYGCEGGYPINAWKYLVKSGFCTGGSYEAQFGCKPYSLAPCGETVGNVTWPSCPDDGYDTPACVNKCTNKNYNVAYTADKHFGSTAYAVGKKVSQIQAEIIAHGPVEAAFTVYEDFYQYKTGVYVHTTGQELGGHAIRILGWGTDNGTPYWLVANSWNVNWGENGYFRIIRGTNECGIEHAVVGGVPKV

CTSB protease = target: T2, CTSB protease (Homo sapiens, UniProt P07858); assay: CTSB protease activity inhibition in vitro (z-Arg-Arg-AMC substrate); assay type: biochemical; details: for Inhibition rate (%) of the CTSB protease activity / inhibition at 1000 µM: 1 mM of each compound; for inhibition at 1000 µM: read-out: Inhibition rate (%) of the CTSB protease activity
T2 construct: purchased Sino Biological Inc. 10483-H08H-10

[2] = test system: Phsp-4::gfp stress-response reporter; assay: Phsp-4::gfp stress response assay in unexposed posterior region after localized UV irradiation (LUI); assay type: in vivo, C. elegans; details: zcls4 L1 larvae treated with 1 mM compound for 48 h (FIG. 17)
[3] = test system: germ cell corpses in ced-1(e1735) animals; assay: Germ cell corpse assay with recombinant proteins in liquid culture; assay type: in vivo, C. elegans; details: for Germ cell corpses in ced-1(e1735) animals: 2.8 μM tCPR-4 proteins or 0.27 μM rhCTSB, L4 larvae, 48 hours
Method: Growing C. elegans animals in 96-well plates. HB101 bacteria were mixed with 100 μL conditioned medium (0.1 μg/μL) or 100 μL S-Medium containing 2.8 μM of recombinant tCPR-4 proteins (wild-type or mutant) or 0.27 μM recombinant human cathepsin B in a 96-well plate. Approximately 60 L4 larvae were transferred into each well of the plate. After being cultured in liquid media for 48 hours, these animals were scored for the numbers of germ cell corpses and mitotic nuclei. Quantification of germ cell corpses. L4 animals were cultured in liquid media in a 96-well plate as described above. After 48 hours, they were transferred to NGM plates and allowed to recover for 1 hour at 20° C. The animals were then anesthetized by 20 mM NaN3, mounted onto 2% agar pad, and scored under Nomarski optics. For transgenic animals expressing CPR-4 in the pharynx, L4 animals were grown on NGM plates for 24 hours at 20° C. before they were scored for germ cell corpses. Only the posterior arms of intact gonads were scored. Blind tests were carried out in all germ cell corpse quantification experiments.

[4] = test system: germline mitotic zone nuclei; assay: Germ cell proliferation assay (mitotic nuclei); assay type: in vivo, C. elegans; details: 2.8 μM tCPR-4, 48 hours
Method: Growing C. elegans animals in 96-well plates. HB101 bacteria were mixed with 100 μL conditioned medium (0.1 μg/μL) or 100 μL S-Medium containing 2.8 μM of recombinant tCPR-4 proteins (wild-type or mutant) or 0.27 μM recombinant human cathepsin B in a 96-well plate. Approximately 60 L4 larvae were transferred into each well of the plate. After being cultured in liquid media for 48 hours, these animals were scored for the numbers of germ cell corpses and mitotic nuclei. Quantification of mitotic nuclei. L4 animals treated with 2.8 μM of purified tCPR-4 proteins in liquid culture for 48 hours were transferred to NGM plates and allowed to recover for 1 hour at 20° C. They were then dissected to expose their gonads following the protocol described previously. Dissected gonads were fixed and stained with DAPI. The number of germ nuclei and the number of metaphase nuclei in the mitotic zone of each gonad were scored using a Zeiss Nomarski microscope with a DAPI filter.

N2 animals = assay: Embryonic lethality assay in liquid media with purified proteins; assay type: in vivo, C. elegans; details: 2.8 μM tCPR-4 proteins or 0.27 μM rhCTSB, 48 hours
Method: Embryonic lethality and larval arrest assays. For embryonic lethality assays caused by direct irradiation, after irradiated with 100 J/m^2 UV or 500 Gy gamma ray, gravid adults were placed on NGM plates to lay eggs for 4 hours at 25° C. and then removed from the plates. For embryonic lethality assays in liquid media, L4 larvae were cultured in conditioned medium or S-Medium containing the purified proteins at 20° C. for 48 hours, transferred to fresh NGM plates from the liquid media, and allowed to lay eggs for 4 hours at 25° C., before the adult animals were removed. For embryonic lethality assays in transgenic animals expressing CPR-4 in the pharynx, transgenic gravid adults at 24 hours post L4 were placed on NGM plates to lay eggs for 4 hours at 25° C. and then removed from the plates.

[5] = Protease activity of recombinant proteins in vitro; assay type: biochemical; details: 2.8 μM tCPR-4 proteins, 0.27 μM rhCTSB; z-Arg-Arg-AMC
Method: Measurement of protease activity in vitro. The CPR-4 enzymatic assays were performed following the method described previously with some modifications. The cathepsin B-specific fluorogenic substrate, Z-Arg-Arg-7-amido-4-methylcoumarin hydrochloride (z-Arg-Arg-AMC; Peptanova, catalog number 88937-61-5), was dissolved in 2×reaction buffer, containing 25 mM Tris-HCl (pH 8.0), 100 mM NaCl, 10% (v/v) Glycerol, 0.8 mM Sodium Acetate (pH6.0), and 8 mM EDTA. For the assays, 10 μL of proteins (100 ng/μL) or 10 μL of conditioned medium (100 ng/μL) were incubated with 10 μL of 20 μM z-Arg-Arg-AMC at 25° C. for 10 minutes before measuring the […]. Enzymatic activities were determined as the mean velocities at 25° C. in a dual luminescence fluorometer EnVision (Perkin-Elmer) at an excitation wavelength of 380 nm and an emission wavelength of 460 nm, and expressed as relative intensity in kilo relative fluorescence unit (kRFU). Recombinant human cathepsin B (rhCTSB; Sino Biological Inc., catalog number 10483-H08H-10) was dissolved in a buffer recommended by the manufacturer [25 mM Tris-HCl (pH 8.0), 100 mM NaCl, 10% (v/v) glycerol, 5 mM DTT, and 0.1% Triton-X]. The buffer control unique to the CPR-4 proteins or the rhCTSB protein, or the sham-irradiated conditioned medium, was also measured using the same procedures. S-Medium was used in each experiment as the background control.

[6] = read-out: IC50 in inhibiting the CTSB protease activity
[7] = read-out: IC50 in inhibiting CTSB

Molecule: O=c1c(O)c(-c2ccc(O)c(O)c2)oc2cc(O)cc(O)c12 [Quercetin, 2-(3,4-dihydroxyphenyl)-3,5,7-trihydroxy-4H-chromen-4-one]
- inhibition at 1000 µM [1]: 80.7%
- Inhibition of the activity of CTSB (in words) (CTSB protease): inhibit the activity of CTSB
- Inhibition rate (%) of the CTSB protease activity (CTSB protease): 82.42%
- inhibition at 1000 µM (CTSB protease): 65 to 85%
- IC50 (CTSB protease; [6]): 1870 nM

Molecule: CCCNC(=O)[C@H]1O[C@@H]1C(=O)N[C@H](C(=O)N1CCC[C@H]1C(=O)OC)[C@@H](C)CC [CA074Me, CA074 methyl ester, reference compound]
- Bystander Phsp-4::gfp response in posterior unexposed regions after LUI at the head [2]: abolished the bystander Phsp-4::gfp response
- Inhibition rate (%) of the CTSB protease activity (CTSB protease): best inhibitory effects
- inhibition at 1000 µM (CTSB protease): 88.1%
- IC50 (CTSB protease; [7]): ≤ 20 nM
- IC50 (CTSB protease; [6]): < 10 nM

Molecule: O=c1c(O[C@@H]2O[C@H](CO)[C@@H](O)[C@H](O)[C@H]2O)c(-c2ccc(O)c(O)c2)oc2cc(O)cc(O)c12 [Isoquercitrin, 2-(3,4-Dihydroxyphenyl)-5,7-dihydroxy-3-[(2S,3R,4S,5S,6R)-3,4,5-trihydroxy-6-(hydroxymethyl)oxan-2-yl]oxychromen-4-one]
- Inhibition of the activity of CTSB (in words) (CTSB protease): inhibit the activity of CTSB
- Inhibition rate (%) of the CTSB protease activity (CTSB protease): 68.98%
- inhibition at 1000 µM (CTSB protease): 65 to 85%

Molecule: CCCNC(=O)[C@H]1O[C@@H]1C(=O)N[C@H](C(=O)N1CCC[C@H]1C(=O)O)[C@@H](C)CC (relative stereo) [CA074, N-(1-3-trans-propylcarbamoyloxirane-2-carbonyl)-1-isoleucyl-1-proline, reference compound]
- Bystander Phsp-4::gfp response in posterior unexposed regions after LUI at the head [2]: abolished the bystander Phsp-4::gfp response
- Inhibition rate (%) of the CTSB protease activity (CTSB protease): best inhibitory effects
- inhibition at 1000 µM (CTSB protease): 91.8%

Molecule: O=c1cc(-c2ccccc2)oc2cc(O)c(O)c(O)c12 [Baicalein, 5,6,7-Trihydroxy-2-phenyl-chromen-4-one]
- inhibition at 1000 µM [1]: 41.5%
- inhibition at 1000 µM (CTSB protease): 65 to 85%
- IC50 (CTSB protease; [6]): 870 nM

Molecule: O=C(OC[C@H]1O[C@@H](OC(=O)c2cc(O)c(O)c(OC(=O)c3cc(O)c(O)c(O)c3)c2)[C@H](OC(=O)c2cc(O)c(O)c(OC(=O)c3cc(O)c(O)c(O)c3)c2)[C@@H](OC(=O)c2cc(O)c(O)c(OC(=O)c3cc(O)c(O)c(O)c3)c2)[C@@H]1OC(=O)c1cc(O)c(O)c(OC(=O)c2cc(O)c(O)c(O)c2)c1)c1cc(O)c(O)c(OC(=O)c2cc(O)c(O)c(O)c2)c1 [Tannic acid]
- inhibition at 1000 µM (CTSB protease): 69.3%

Molecule: O=c1cc(-c2ccc(O)cc2)oc2cc(O)cc(O)c12 [Apigenin, 5,7-Dihydroxy-2-(4-hydroxyphenyl)-4H-1-benzopyran-4-one]
- Inhibition rate (%) of the CTSB protease activity (CTSB protease): 70.93%
- inhibition at 1000 µM (CTSB protease): 65 to 85%

Molecule: Nc1nc2ncc(CNc3ccc(C(=O)N[C@@H](CCC(=O)O)C(=O)O)cc3)nc2c(=O)[nH]1 [Folic acid]
- Enhancement of the activity of the CTSB protease (CTSB protease): more than 4 folds
- EC50 (CTSB protease; read-out: EC50 (activation of the CTSB protease)): 1260 nM

Molecule: CC(C)C[C@H](NC(=O)[C@@H]1O[C@H]1C(=O)O)C(=O)NCCCCNC(=N)N [E64, N—[N-(L-3-Trans-carboxirane-2-carbonyl)-L-leucyl]-agmatine, reference compound]
- inhibition at 1000 µM [1]: 89.6%
- inhibition at 1000 µM (CTSB protease): 92.1%
- IC50 (CTSB protease; [7]): ≤ 20 nM
- IC50 (CTSB protease; [6]): 20 nM

Molecule: NH2-Arg-Leu-Ala-COOH—Se
- Inhibition rate (%) of the CTSB protease activity (CTSB protease): 86.93%

B1: tCPR-4: recombinant truncated CPR-4 lacking its signal peptide (residues 1-15) (protein, UniProt P43508 81-335, looked up)
Cathepsin B-like cysteine …: T1 sequence (P43508 81-335)
- Germ cell death in ced-1(e1735); daf2(e1370) mutant ([3]; 2.8 μM tCPR-4, 48 hours): did not further reduce germ cell death
- Germ cell death in ced-1(e1735); pdk-1(sa680) animals ([3]; 2.8 μM tCPR-4, 48 hours): did not reduce germ cell death
- Germ cell corpses in ced-1(e1735) animals [3]: reduced germ cell corpses
- Germ cell nuclei and metaphase nuclei in the mitotic zone of N2 animals [4]: more germ cell nuclei and more metaphase nuclei in the mitotic zone
- Embryonic lethality of treated N2 animals (N2 animals): increased embryonic lethality

B2: tCPR-4(N301A): tCPR-4 with mutation N301A changing a non-catalytic residue (protein, UniProt P43508 81-335, looked up, variant N301A)
Cathepsin B-like cysteine …: T1 sequence (P43508 81-335) with N221A
- Germ cell corpses in ced-1(e1735) animals [3]: reduced germ cell corpses
- Protease activity of recombinant protein [5]: did not affect tCPR-4 protease activity
- Embryonic lethality of treated N2 animals (N2 animals): increased embryonic lethality

B3: tCPR-4(C109A): tCPR-4 with mutation of the conserved catalytic Cysteine residue (protein, UniProt P43508 81-335, looked up, variant C109A)
Cathepsin B-like cysteine …: T1 sequence (P43508 81-335) with C29A
- Germ cell corpses in ced-1(e1735) animals [3]: failed to do so
- Protease activity of recombinant protein [5]: abolished the protease activity
- Embryonic lethality of treated N2 animals (N2 animals): failed to do so

B4: tCPR-4(H281A) (protein, UniProt P43508 81-335, looked up, variant H281A)
Cathepsin B-like cysteine …: T1 sequence (P43508 81-335) with H201A
- Germ cell corpses in ced-1(e1735) animals [3]: failed to do so
- Protease activity of recombinant protein [5]: abolished the protease activity
- Embryonic lethality of treated N2 animals (N2 animals): failed to do so
